Test results reported in patent US20230103444A1 (The Regents of the University of Colorado, a Body Corporate, priority 2020, published 2023).
“Also recorded” adds a separate entry of the source.

Assays:
DLD1CHD1L-OE cells = experiment: DNA damage by γ-H2AX immunofluorescence; format: cell-based, human; settings: 6 h; for DNA damage (γ-H2AX), combination with SN-38: compound 10 μM + SN-38 1 μM, vs SN-38 alone
Protocol: (§1) DLD1^CHD1L-OE cells were seeded into a 96-well PerkinElmer Cell Carrier plate and allowed to adhere overnight. Cells were then treated with the appropriate compound at 10 μM (0.5% DMSO) or with CHD1L inhibitor in combination SN-38 (1 μM), oxaliplatin (10 μM), and etoposide (10 μM). Cells were treated for 6 h. Media was aspirated and cells were washed with cold PBS. Cells were then fixed with 3% paraformaldehyde for 15 min at room temperature, fixed cells were washed with PBS three times. Cells were blocked for 1 hour at room temperature in 5% BSA, 0.3% Triton X-100 in PBS. Cells were then immunostained with phospho-(S139)-g-H2AX rabbit mAb using a 1:800 dilution in 1% BSA, 0.3% Triton X-100 in PBS at 4° C. overnight. Primary antibody was aspirated and cells were washed with PBS. Cells were incubated for 2 h at room temperature with goat anti-rabbit Alexa Fluor Plus™ 647 fluorescent secondary antibody at a concentration of 5 μg/mL in 1% BSA, 0.3% Triton X-100 in PBS. Cells were then washed with PBS, Hoechst 33342 stain was diluted to a concentration of 1:1000 in PBS, and added to cells for 15 min at room temperature. Cells were then imaged using a 20× water objective on the Opera Phenix™ HCS imaging system (PerkinElmer). Synergy was determined using the coefficient of drug interaction (CDI) equation, CDI=(A+B)/(AB). Synergy was defined in these experiments with a CDI<0.8. Additivity was 0.8-1.2 and antagonism was defined by a CDI>1.2.
(§2) γ-H2AX DNA damage combination studies with irinotecan (SN38). CHD1L inhibitor 6 alone and in combination with SN38 was assessed for DNA damage as previously reported [Abbott et al., 2020; Abraham et al., 2019]. Using DLD1 colorectal cancer cells that have low CHD1L endogenous expression and DLD1 cells engineered to overexpress CHD1L, DNA damage studies were conducted measuring the immunofluorescence of γ-H2AX, a well-established biomarker of DNA damage [Ji et al., 2017; Ivashkevich et al., 2012]. […] Media was aspirated and cells were washed with cold PBS. Cells were then fixed with 3% paraformaldehyde for 15 min at room temperature and washed with PBS three times. Cells were blocked for 1 hour at room temperature in 5% BSA, 0.3% Triton X-100 in PBS. Cells were then immunostained with phospho-(S139)-γ-H2AX rabbit mAb using a 1:800 dilution in 1% BSA, 0.3% Triton X-100 in PBS at 4° C. overnight. Primary antibody was aspirated, and cells were washed with PBS. Cells were incubated for 2 hours at room temperature with goat anti-rabbit Alexa Fluor Plus™ 647 fluorescent secondary antibody at a concentration of 5 μg/mL in 1% BSA, 0.3% Triton X-100 in PBS. Cells were then washed with PBS; Hoechst 33342 stain was diluted to a concentration of 1:1000 in PBS and added to cells for 15 min at room temperature. Cells were then imaged using a 20× water objective on the PerkinElmer Phenix HCS imaging system. […] CDI=(A+B)/(AB), synergy was determined with a CDI<0.8, additivity was 0.8-1.2, and antagonism was defined by a CDI>1.2. Welch's t-test statistical analysis was used to determine significance, where **=P≤0.01.

DLD1CHD1L-EV cells = experiment: DNA damage by γ-H2AX immunofluorescence; format: cell-based, human; settings: low CHD1L expressing cells
Protocol: as §1, §2

[1] = Accumulation in SW620 xenograft tumors and liver; format: in vivo, athymic nude mice; settings: 50 mg/kg i.p. QD 5 days, n=4
Protocol: Growth was monitored with caliper measurements 3× per week. […] Treatments were administered i.p. QD over five days. Mice were sacrificed 2 h after the final dose on day five of the treatment.

TCF-transcription = experiment: TOPflash TCF-transcriptional reporter assay; format: cell-based, human; settings: TOPflash reporter in CRC cell lines (SW620, HCT116, DLD1CHD1L-OE), 24 h; listed as 8
Protocol: TOPflash assay (Millipore, Billerica, Mass.) was used to evaluate TCF transcriptional activity in CRC cells. A total of 20,000 cells per well were plated into 96-well white plates and transfected with TransIT®-LT1 transfection reagent (Mirus, Madison, Wis.). Cells were incubated with transfection mix for 24 h. Next, cells were washed with phosphate-buffered solution (PBS) and a 1:1 ratio of PBS:ONE-Glo™ luciferase reagent Promega (Madison, Wis.) was added and the luminescence was detected within 10 min. A duplicate experiment was conducted to measure cell viability using CellTiter-Glo® Luminescent Cell Viability Assay (Promega, Madison, Wis.), which was used to normalize TOPflash luminescence to obtain the fold change in TCF activity. Experiments were replicated 2× (n=3 for each experiment).
TCF-transcriptional Reporter Assay. […] Afterwards, cells from the white solid bottom plate were carefully washed with PBS and a 1:1 ratio of PBS:One-Glo Luciferase Assay System (Promega) was added, incubated for 10 min, and luminescence was quantified on Envision plate reader (PerkinElmer) for TCF-activity. As a control, cells from the clear plate were lysed with Mammalian Cell Lysis Buffer (Promega) and the total protein from each well was quantified with BCA assay (ThermoFisher).

Row | SMILES | DNA damage (γ-H2AX activity), compound alone (DLD1CHD1L-OE cells; 10 μM) | DNA damage (γ-H2AX), combination with SN-38 (DLD1CHD1L-OE cells) | DNA damage (γ-H2AX), combination with SN-38 (DLD1CHD1L-OE cells; listed as 6.0) | DNA damage (γ-H2AX), combination with etoposide (DLD1CHD1L-OE cells; compound 10 μM + etoposide 10 μM, vs etoposide alone) | DNA damage (γ-H2AX), combination with oxaliplatin (DLD1CHD1L-OE cells; compound 10 μM + oxaliplatin 10 μM) | DNA damage (γ-H2AX), combination with SN38 (DLD1CHD1L-EV cells) | DNA damage (γ-H2AX), compound alone (DLD1CHD1L-EV cells) | DNA damage (γ-H2AX), combination with etoposide (DLD1CHD1L-EV cells; etoposide 10 μM) | concentration accumulated in SW620 tumors [1] | inhibition of TCF-transcription, in words (TCF-transcription)
1 | Cc1cc(Nc2ccc(NC(=O)Cc3cccs3)cc2)nc(N2CCCC2)n1 [Compound 6, N-(4-((6-methyl-2-(pyrrolidin-1-yl)pyrimidin-4-yl)amino)phenyl)-2-(thiophen-2-yl)acetamide] | no significant DNA damage | synergized | synergy | synergized | no synergy | nor does it synergize with SN38 | does not induce significant DNA damage | significant synergy | 10,533±5,579 ng/mL | 
2 | Cc1cc(Nc2ccc(NC(=O)c3c[nH]c4ccccc34)cc2)nc(N2CCCC2)n1 [Compound 6.3, N-(4-((6-methyl-2-(pyrrolidin-1-yl)pyrimidin-4-yl)amino)phenyl)-1H-indole-3-carboxamide] |  |  |  |  |  |  |  |  |  | potent low μM dose-dependent inhibition; also recorded: more potent dose dependent inhibition
